The supplement of paper PMC9780213

Legend:
Conditions in all cases: treatment time: 24 h
U2OS-mOrange2-Peroxisome = assay: cell count relative to DMSO control (panel B, lysosome/peroxisome/lipid stain) (fraction of control); higher = more cells (less toxicity)
Method: (§1)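 U2OS-derived cells in 384-well plates were treated for 24 h with a 7-point 2-fold dilution series (top dose 20 µM for most compounds; final max DMSO 1%), then fixed, stained in four marker panels and imaged on a Cellomics ArrayScan. Cell count per treatment (three replicate plates merged) is given as a fraction of DMSO control. Panel A used parental U2OS, panel B U2OS-mOrange2-Peroxisome, panel C1 U2OS-LMNB1-TUBA1B-ACTB (DRAQ5 nuclei).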

U2OS-LMNB1-TUBA1B-ACTB = assay: cell count relative to DMSO control (panel C1, DRAQ5/ER stain) (fraction of control); higher = more cells (less toxicity)
Method: as §1

U2OS = assay: cell count relative to DMSO control (panel A, nuclei/RNA/PMG/mitochondria stain) (fraction of control); higher = more cells (less toxicity)
Method: as §1

SMILES | cell count (U2OS-mOrange2-Peroxisome; 0.07812 µM) | cell count (U2OS-mOrange2-Peroxisome; 0.15625 µM) | cell count (U2OS-mOrange2-Peroxisome; 0.3125 µM) | cell count (U2OS-mOrange2-Peroxisome; 0.625 µM) | cell count (U2OS-mOrange2-Peroxisome; 1.25 µM) | cell count (U2OS-mOrange2-Peroxisome; 2.5 µM) | cell count (U2OS-mOrange2-Peroxisome; 5 µM) | cell count (U2OS-LMNB1-TUBA1B-ACTB; 0.07812 µM) | cell count (U2OS-LMNB1-TUBA1B-ACTB; 0.15625 µM) | cell count (U2OS-LMNB1-TUBA1B-ACTB; 0.3125 µM) | cell count (U2OS-LMNB1-TUBA1B-ACTB; 0.625 µM) | cell count (U2OS-LMNB1-TUBA1B-ACTB; 1.25 µM) | cell count (U2OS-LMNB1-TUBA1B-ACTB; 2.5 µM) | cell count (U2OS-LMNB1-TUBA1B-ACTB; 5 µM) | cell count (U2OS; 0.07812 µM) | cell count (U2OS; 0.15625 µM) | cell count (U2OS; 0.3125 µM) | cell count (U2OS; 0.625 µM) | cell count (U2OS; 1.25 µM) | cell count (U2OS; 2.5 µM) | cell count (U2OS; 5 µM) | cell count (U2OS-mOrange2-Peroxisome; 10 µM) | cell count (U2OS-mOrange2-Peroxisome; 20 µM) | cell count (U2OS-LMNB1-TUBA1B-ACTB; 10 µM) | cell count (U2OS-LMNB1-TUBA1B-ACTB; 20 µM) | cell count (U2OS; 10 µM) | cell count (U2OS; 20 µM)
C=CCNC1=C2C[C@@H](C)C[C@H](OC)[C@H](O)[C@@H](C)/C=C(\C)[C@H](OC(N)=O)[C@@H](OC)/C=C\C=C(/C)C(=O)NC(=CC1=O)C2=O [tanespimycin] | 1.48 | 0.803 | 0.767 | 0.7 | 0.405 | 0.144 | 0.148 | 1.06 | 1.03 | 1.06 | 0.956 | 0.938 | 0.501 | 0.0736 | 1 | 0.976 | 0.929 | 0.901 | 0.686 | 0.307 | 0.0406 | – | – | – | – | – | –
COc1ccc2cc1Oc1ccc(cc1)C[C@H]1c3cc(c(OC)cc3CCN1C)Oc1c(OC)c(OC)cc3c1[C@H](C2)N(C)CC3 [tetrandrine] | – | – | 0.838 | 0.86 | 0.958 | 0.976 | 0.895 | – | – | 1.04 | 1.06 | 1.06 | 1.05 | 0.976 | – | – | 0.949 | 1 | 1.01 | 0.97 | 0.905 | 0.827 | 0.488 | 0.796 | 0.639 | 0.781 | 0.631
Cn1c(CCCC(=O)O)nc2cc(N(CCCl)CCCl)ccc21 [bendamustine] | – | – | 0.462 | 0.439 | 0.374 | 0.371 | 0.366 | – | – | 1.02 | 1.03 | 0.607 | 0.26 | 0.277 | – | – | 0.945 | 0.814 | 0.265 | 0.1 | 0.145 | 0.422 | 0.454 | 0.264 | 0.284 | 0.133 | 0.162
CC[C@@]1([C@@H]2O[C@@H]([C@H]3O[C@@](O)(CO)[C@H](C)C[C@@H]3C)C[C@@H]2C)CC[C@H]([C@]2(C)CC[C@]3(C[C@H](O)[C@@H](C)[C@@H]([C@@H](C)[C@@H](OC)[C@H](C)C(=O)O)O3)O2)O1 [monensin] | – | – | 0.691 | 0.713 | 0.78 | 0.617 | 0.617 | – | – | 0.932 | 0.699 | 0.642 | 0.412 | 0.421 | – | – | 0.746 | 0.606 | 0.504 | 0.422 | 0.375 | 0.641 | 0.633 | 0.406 | 0.418 | 0.339 | 0.332
O=C(/C=C/c1cccc(S(=O)(=O)Nc2ccccc2)c1)NO [belinostat] | – | – | 0.814 | 0.805 | 1.05 | 1.14 | 1.19 | – | – | 1.04 | 1.04 | 1.02 | 0.99 | 1.09 | – | – | 1.07 | 1.03 | 1.1 | 1.07 | 1.04 | 1.18 | 0.581 | 0.701 | 0.397 | 0.557 | 0.351
NS(=O)(=O)C#Cc1ccccc1 [pifithrin-mu] | – | 1.01 | 1.02 | 0.981 | 0.941 | 1.08 | 1.02 | – | 1.14 | 1.09 | 1.06 | 1.08 | 1.07 | 1.1 | – | 1.06 | 1.07 | 1.11 | 1.05 | 0.983 | 0.953 | 1.13 | – | 0.97 | – | 1.05 | –
CC(C=CC(=O)NO)=C[C@@H](C)C(=O)c1ccc(N(C)C)cc1 [trichostatin-a] | – | – | 0.582 | 0.501 | 0.516 | 0.585 | 0.605 | – | – | 1.04 | 0.942 | 0.773 | 0.619 | 0.639 | – | – | 0.888 | 0.737 | 0.497 | 0.466 | 0.427 | 0.228 | 0.0857 | 0.517 | 0.314 | 0.258 | 0.142
N#C[C@H](O[C@@H]1O[C@H](CO[C@@H]2O[C@H](CO)[C@@H](O)[C@H](O)[C@H]2O)[C@@H](O)[C@H](O)[C@H]1O)c1ccccc1 [amygdalin] | – | – | 0.877 | 0.848 | 0.731 | 0.983 | 0.805 | – | – | 1.05 | 1.15 | 0.992 | 1.01 | 0.959 | – | – | 1.09 | 1.06 | 1.07 | 1.02 | 0.921 | 0.948 | 0.953 | 1.1 | 0.956 | 1.05 | 0.974
CN(C)[C@@H]1C(O)=C(C(N)=O)C(=O)[C@@]2(O)C(O)=C3C(=O)c4c(O)ccc(Cl)c4[C@@](C)(O)[C@H]3C[C@@H]12 [chlortetracycline] | – | – | 0.886 | 0.771 | 0.779 | 0.944 | 1.01 | – | – | 1.15 | 1.12 | 1.1 | 0.983 | 0.989 | – | – | 1.12 | 1.07 | 1.08 | 1.06 | 1.02 | 0.62 | 0.486 | 1.07 | 0.897 | 0.933 | 0.783
O=C(N/N=C/c1ccc(O)c(O)c1)c1cc2ccccc2cc1O [dynasore] | – | – | 0.779 | 0.85 | 0.742 | 1.03 | 0.645 | – | – | 1.02 | 1.05 | 1.06 | 1.12 | 0.953 | – | – | 0.981 | 1.01 | 0.925 | 1.02 | 0.867 | 0.497 | 0.501 | 0.966 | 0.826 | 0.807 | 0.638
OC(CS)C(O)CS (stereo unspecified) [DTT] | – | – | 0.732 | 0.714 | 0.826 | 0.911 | 0.773 | – | – | 0.887 | 0.811 | 0.809 | 0.764 | 0.806 | – | – | 0.863 | 0.785 | 0.733 | 0.765 | 0.729 | 0.0574 | 0.0584 | 0.477 | 0.457 | 0.201 | 0.11
O=C(Oc1cc(S(=O)(=O)c2ccccc2)ccc1[N+](=O)[O-])c1ccc(Cl)cc1 | – | – | 0.726 | 0.838 | 0.873 | 1.02 | 1.08 | – | – | 1.05 | 1.06 | 0.969 | 0.953 | 0.983 | – | – | 1.05 | 1.08 | 1.11 | 1.06 | 0.997 | 1.26 | 0.846 | 1.13 | 0.989 | 0.944 | 0.966
CO[C@H]1C[C@@H]2CC[C@@H](C)[C@@](O)(O2)C(=O)C(=O)N2CCCC[C@H]2C(=O)O[C@H]([C@H](C)C[C@@H]2CC[C@@H](OP(C)(C)=O)[C@H](OC)C2)CC(=O)[C@H](C)/C=C(\C)[C@@H](O)[C@@H](OC)C(=O)[C@H](C)C[C@H](C)/C=C/C=C/C=C/1C [deforolimus] | 0.782 | 0.674 | 0.595 | 0.61 | 0.485 | 0.385 | 0.364 | 0.878 | 0.753 | 0.625 | 0.644 | 0.471 | 0.438 | 0.373 | 0.964 | 0.74 | 0.655 | 0.557 | 0.504 | 0.582 | 0.382 | – | – | – | – | – | –
COc1ccc(C[C@H](N)C(=O)N[C@H]2[C@@H](O)[C@H](n3cnc4c(N(C)C)ncnc43)O[C@@H]2CO)cc1 [puromycin] | 1.01 | 0.924 | 1.07 | 1.09 | 1.11 | 1.29 | 1.52 | 1.1 | 0.997 | 1.11 | 1.13 | 0.957 | 1.02 | 1.02 | 1.06 | 1.05 | 1.03 | 1.06 | 0.995 | 1.03 | 0.957 | – | – | – | – | – | –
CO[C@H]1C[C@@H]2CC[C@@H](C)[C@@](O)(O2)C(=O)C(=O)N2CCCC[C@H]2C(=O)O[C@H]([C@H](C)C[C@@H]2CC[C@@H](O)[C@H](OC)C2)CC(=O)[C@H](C)/C=C(\C)[C@@H](O)[C@@H](OC)C(=O)[C@H](C)C[C@H](C)/C=C/C=C/C=C/1C [sirolimus] | – | – | 0.81 | 0.644 | 0.677 | 0.521 | 0.453 | – | – | 1.12 | 0.947 | 1.07 | 0.944 | 0.94 | – | – | 1.08 | 0.8 | 0.967 | 1.05 | 0.947 | 0.451 | 0.372 | 0.711 | 0.745 | 0.766 | 0.755
O=C(CCCCCCC(=O)Nc1ccccc1)NO [vorinostat] | – | – | 0.929 | 1.04 | 0.893 | 1.13 | 0.926 | – | – | 1.1 | 1.02 | 0.995 | 0.911 | 1.01 | – | – | 1.12 | 1.1 | 0.993 | 1.03 | 1.02 | 0.812 | 0.292 | 0.794 | 0.208 | 0.899 | 0.304
